# Assay results: US7094801B2, “Chalcone derivatives and their use to treat diseases” (Atherogenics, Inc., priority 2001, dated 2006)
# Marks after values point to notes of the source that are not given here.
# Tests used:
# [1] = tested on: IL-13 mRNA; assay: IL-13 mRNA in mouse lungs, ovalbumin sensitization and challenge (real-time PCR); type: in vivo; settings: 100 mg/kg/d, compared with vehicle treated mice
# Experimental: (§1) Lung tissues were collected from ovalbumin (Calbiochem) or vehicle (2% Cremophor/Bicarbonate) sensitized Balb/c mice (Charles River) with or without treatment of test compound (100 mg/kg/d, from day 0 to day 14). Total RNA samples were isolated by the Trizol method (Life Technologies, Grand Island, N.Y.) and quantitatively measured by UV spectrophotometer, as well as qualitatively examined by ethidum bromide stained gel electrophoresis. First strand cDNA templates were generated with oligo (dT) by Reverse Transcription Kit (Invitrogen, Carlsbad, Calif.). The initial amounts of mRNA of each samples were quantitatively determined by running a SYBR Green (Qiagen, Valencia, Calif.) based real-time PCR (programmed as: initial denaturation at 95° C. for 15 minutes, denaturation at 95° C. for 15 seconds, annealing and elongation at 51±1° C. for 1 minute for total 40 cycles) with a specific pair of primers (IDT Corporation, Coralville, Iowa) and control primers for GAPDH in iCycler IQ Optical System (Hercules, Calif.). The data were statistically analyzed by ANOVA and t-tests with multiple comparisons of means (n=5 and P<0.05 were considered significant).
# [2] = tested on: MCP-1; assay: In Vitro MCP-1 Activity Assay; type: cell-based; settings: Endothelial cell; human endothelial cells, TNF-α (1 ng/ml), approximately 16 hours; read-out: IC50 (amount of compound required to achieve a 50% reduction compared to control), MCP-1
# Experimental: Cultured human endothelial cells were seeded in 96-well plates. On the following day cells were stimulated with TNF-α (1 ng/ml) in the presence or absence of compounds dissolved in DMSO. To establish a dose curve and an IC50, multiple concentrations in 2- to 5-fold increments were used. Cells were exposed to TNF-α and compounds for approximately 16 hours. The next day the cells were visually examined via light microscopy to score for visual signs of toxicity. Cell culture media, diluted 1:10, was analyzed by an MCP-1 immunoassay kit (R & D Systems). This assay is a sandwich immunoassay using immobilized anti-MCP-1 antibody in 96-well plate to capture secreted MCP-1 in cell culture media. Captured MCP-1 was subsequently detected with a horse radish peroxidase-conjugated anti-MCP-1 antibody for color development. Compound 3 expressed an IC50 values of >10(the amount of compound (μM) required to achieve a 50% reduction compared to control (cells stimulated with TNF-α only)).
# [3] = tested on: IL-1β; assay: LPS-stimulated IL-1β secretion in human peripheral blood mononuclear cells; type: cell-based; settings: PBMC; for Percent IL-1β Secreted: LPS (1–2 μg/ml) 3 hours
# Experimental: Human peripheral blood mononuclear cells were treated with or without Compound 3 for 1 hour, then stimulated with LPS (1–2 μg/ml) for 3 hours. Condition media was collected and IL-1β measured using an ELISA kit. […] See Biological Table 4
# [4] = tested on: TNF-α; assay: Plasma TNF-α levels in LPS-challenged mice; type: in vivo, mouse; settings: subcutaneously 100 mg/kg/d, 2 hr prior to LPS injection (1 mg/kg), compared with vehicle controls
# Experimental: (§2) Balb/C mice (6–8 weeks) were injected with LPS (1 mg/kg; 5 mls/kg) and sacrificed 2 hr later. Blood was collected for plasma TNF-α levels and lungs for measurement of VCAM-1 mRNA levels by quantitative RT-PCR. Compound 3 administered subcutaneously at a dose of 100 mg/kg/d, 2 hr prior to LPS injection, inhibited TNF-α production by 80% and VCAM-1 expression by 60% compared with vehicle controls.
# [5] = tested on: IL-2 mRNA; assay: IL-2 mRNA in mouse lungs, ovalbumin sensitization and challenge (real-time PCR); type: in vivo; settings: 100 mg/kg/d, compared with vehicle treated mice
# Experimental: as §1
# [6] = tested on: Human Aortic Smooth Mucle Cells (HAoSMC); assay: Smooth Muscle Cell Proliferation Protocol (3H-thymidine incorporation); type: cell-based; settings: HAoSMC stimulated by 5% serum
# Experimental: Human Aortic Smooth Mucle Cells (HAoSMC) were obtained from Clonetics, Inc. and were used below passage 10. Cells were seeded in 24-well plates. When cells were 80% confluent, they were made quiescent by adding media containing 0.2% serum (as compared to 5% serum in normal culture media) for 48 hours. The cells were, then, stimulated by 5% serum in the presence or absence of compounds dissolved in DMSO. […] Rapamycin (at 1 and 0.1 μM) was used as a positive control for the assay. After a 20 hour incubation with or without test compounds, 3H-thymidine (0.5 μCi/well) was added to the cells for 4 hours of labeling. Washed cells were then lysed in NaOH and the amount of 3H-thymidine incorporation was determined. Cytotoxicity of the drug was measured by use of the CytolTox 96 assay kit (Promega, Madison, Wis.).
# [7] = tested on: IL-5 mRNA; assay: IL-5 mRNA in mouse lungs, ovalbumin sensitization and challenge (real-time PCR); type: in vivo; settings: 100 mg/kg/d, compared with vehicle treated mice
# Experimental: as §1
# [8] = tested on: IL-4 mRNA; assay: IL-4 mRNA in mouse lungs, ovalbumin sensitization and challenge (real-time PCR); type: in vivo; settings: 100 mg/kg/d, compared with vehicle treated mice
# Experimental: as §1
# [9] = tested on: IFN-gamma mRNA; assay: IFN-gamma mRNA in mouse lungs, ovalbumin sensitization and challenge (real-time PCR); type: in vivo; settings: 100 mg/kg/d, compared with vehicle treated mice
# Experimental: as §1
# [10] = tested on: VCAM-1 mRNA; assay: Lung VCAM-1 mRNA levels in LPS-challenged mice (quantitative RT-PCR); type: in vivo, mouse; settings: subcutaneously 100 mg/kg/d, 2 hr prior to LPS injection (1 mg/kg), compared with vehicle controls
# Experimental: as §2
# [11] = tested on: rat adjuvant arthritis model; assay: DMARD activity in rat adjuvant arthritis (bone erosion, splenomegaly); type: in vivo
# Experimental: Male Lewis rats (150–175 g) from Charles River Laboratories were anesthetized on day 0 with 3–5% isoflurane anesthesia while the tail base was shaved and adjuvant mixture was injected. Fifty μL of adjuvant (10 mg/ml M. butyricum in mineral oil) was injected subcutaneously into two sites at the tail base. Paw swelling was monitored using a plethysmometer (UGO Basile), after shaving each leg to the level of the Achilles tendon to mark the level of immersion. A baseline paw measurement for both hindpaws was taken between d2-d5 and a second measurement was taken on day 7–8. Onset of paw swelling occurred rapidly between d9–11 and daily measurements were performed every weekday between d9 and day 15. Compounds of the invention and vehicles were dosed either prophylactically (d1–14), or therapeutically (d9–14) after swelling was confirmed. Solutions were injected subcutaneously or given orally by gavage 1–2 times per day. From day 0, rats were weighed every 2–3 days and overall health was monitored. Plasma drug levels, if desired, were measured in tail-vein derived blood samples taken on day 14. On day 15, blood samples were obtained by cardiac puncture, rats were euthanized with CO2, selected organs removed and both hindpaws were amputated and placed in 10% buffered formalin for histopathological analysis. See Biological Table 2. […]
# [12] = tested on: IgE; assay: Serum IgE levels in ovalbumin sensitized Balb/c mice; type: in vivo, mouse; settings: 100 mg/kg/d from day 0 to day 14, compared with vehicle treated mice
# Experimental: Peripheral blood samples were collected from ovalbumin (Calbiochem) or vehicle (2% Cremophor/Bicarbonate) treated Balb/c mice (Charles River) with or without administration of test compound (100 mg/kg/d, from day 0 to day 14). Serum was obtained by centrifugation and transferred into Microtainer serum tubes and frozen at −80° C. Mouse IgE ELISA Quantitation Kit (Bethyl Laboratories, Inc. Montgomery, Tex. or PharMingen, San Diego, Calif.) was applied to measure the IgE levels of serum samples. Immuno-reactions were performed as Kit protocol with IgE standard and serum samples in duplicates. The results were read in a microplate reader (Bio-Rad Model 550) at 450 nm and the amounts of IgE were calculated according to the standard curve. The limit of detection in our experiments was 7 ng/ml. Compound 3 administrated at 100 mg/kg/d from day 0 to day 14, reduced serum IgE levels by 38% in ovalbumin sensitized Balb/c mice compared with vehicle treated mice.
# [13] = tested on: Balb/C mice; assay: Asthma Protocol (ovalbumin sensitized and challenged mice, bronchoaveolar lavage); type: in vivo, mouse; settings: sc, daily dosing at 100 mg/kg from day 0–13, lavage fluid
# Experimental: Balb/C mice (6–8 weeks old) are sensitized to ovalbumin (ova) (8 ug ova absorbed in 3.3 mg Alum inject) on days 0 and 5. On day 12, the mice were aerosol challenged with 0.5% ovalbumin dissolved in sterile saline for 1 hr in the AM, and then again in the PM (at least 4 hr apart). On day 14, the mice were anesthetized with ketamine/xylazine/acepromazine cocktail, exsanguinated, and then euthanized. Following blood collection, bronchoaveolar lavage was performed on each animal. Total cell counts were conducted on the lavage fluid, which was subsequently diluted with cell media 1:1. Slides of the lavage fluid were made by spinning the samples with a cytospin centrifuge. Slides were airdried and stained with x. Cell differentials of the lavage fluid were completed at the conclusion of the study. All compounds except Example 2 were well tolerated with no body weight loss throughout the course of the study. Statistical analysis involved ANOVA and Tukey-Kramer post hoc tests. Compounds were administered except where noted by subcutaneous injection once daily from day 0–13. The formulations used contained various mixtures of the following excipients (pharmasolve, cremophor RH 40, tween 80, PEG 300). See Biological Table 3
# [14] = tested on: Male Lewis rats; assay: Rheumatoid Arthritis Protocol (rat adjuvant arthritis, paw swelling); type: in vivo; settings: sq, bid
# Experimental: Male Lewis rats (150–175 g) from Charles River Laboratories were anesthetized on day 0 with 3–5% isoflurane anesthesia while the tail base was shaved and adjuvant mixture was injected. Fifty μL of adjuvant (10 mg/ml M. butyricum in mineral oil) was injected subcutaneously into two sites at the tail base. Paw swelling was monitored using a plethysmometer (UGO Basile), after shaving each leg to the level of the Achilles tendon to mark the level of immersion. A baseline paw measurement for both hindpaws was taken between d2-d5 and a second measurement was taken on day 7–8. Onset of paw swelling occurred rapidly between d9–11 and daily measurements were performed every weekday between d9 and day 15. Compounds of the invention and vehicles were dosed either prophylactically (d1–14), or therapeutically (d9–14) after swelling was confirmed. Solutions were injected subcutaneously or given orally by gavage 1–2 times per day. From day 0, rats were weighed every 2–3 days and overall health was monitored. Plasma drug levels, if desired, were measured in tail-vein derived blood samples taken on day 14. On day 15, blood samples were obtained by cardiac puncture, rats were euthanized with CO2, selected organs removed and both hindpaws were amputated and placed in 10% buffered formalin for histopathological analysis. See Biological Table 2.
# [15] = tested on: VCAM-1; assay: In Vitro VCAM-1 Assay (TNF-α stimulated HAEC or HPAEC, cell ELISA); type: cell-based, human; settings: Homo sapiens, 16 h, TNF-α (1 ng/ml) stimulated HAEC or HPAEC, approximately 16 hours
# Summary of the method: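 Primary human aortic or pulmonary endothelial cells (below passage 9) stimulated with TNF-α (1 ng/ml) plus compound (four concentrations, ≤0.25% DMSO) for about 16 h. Surface VCAM-1 detected by cell ELISA (HRP/TMB, OD 450 nm). IC50 taken as the concentration giving 50% inhibition of the TNF-α-only response.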
smiles,measurement,setting,value
COc1cc(OC)c(-c2cc3ccccc3s2)cc1/C=C/C(=O)c1ccc(C(=O)O)cc1 [Compound 3],inhibition of ovalbumin induced IL-13 mRNA in the lung,[1],82%
same,IC50,[2],> 10000 nM
same,Percent IL-1β Secreted,[3]; 1.25 μM,>40%
same,Percent IL-1β Secreted,[3]; 2.5 μM,>10%
same,Percent IL-1β Secreted,[3]; 5 μM,>5%
same,Percent IL-1β Secreted,[3]; 10 μM,>1%
same,inhibition of LPS-stimulated IL-1β secretion,"[3]; 1 hour pretreatment, LPS 3 hours",dose dependent inhibition
same,inhibition of TNF-α production (plasma),[4],80%
same,effect on IL-2 mRNA in the lung,[5],without significantly affecting
same,IC50,[6],500 nM
same,inhibition of ovalbumin induced IL-5 mRNA in the lung,[7],98%
same,inhibition of ovalbumin induced IL-4 mRNA in the lung,[8],68%
same,effect on IFN-gamma mRNA in the lung,[9],without significantly affecting
same,inhibition of VCAM-1 expression (lung mRNA),[10],60%
same,splenomegaly,"[11]; prophylactically, 100, 50 and 25 mg/kg/d, b.i.d., s.c.",inhibit splenomegaly
same,bone erosion in the ankle joint by histopathological analysis,"[11]; twice daily subcutaneous doses of 60, 40 and 20 mg/kg/d, prophylactically",inhibit bone erosion
same,reduction of serum IgE levels,[12],38%
"COc1cc(OC)c(-c2cc3ccccc3s2)cc1/C=C/C(=O)c1ccc(C(=O)O)cc1 [Example 3, 4-[3E-(5-Benzo[b]thien-2-yl-2,4-dimethoxyphenyl)-acryloyl]-benzoic acid]",% Inhibition,[13],79%
same,% Inhibition,"[14]; 60 mg/Kg/day, d1–14",96%
"COc1cc(OC)c(-c2cccs2)cc1/C=C/C(=O)c1ccc(C(=O)O)cc1 [Example 6, 4-[3E-(2,4-Dimethoxy-5-thiophen-2-yl-phenyl)-acryloyl]-benzoic acid]",% Inhibition,[13],81%
same,% Inhibition,"[14]; 60 mg/Kg/day, d1–14",77%
same,melting point,,213 to 216 °C
same,IC50,[15],< 1000 nM
"COCCOCCOc1cc(OC)c(-c2cccs2)cc1/C=C/C(=O)c1ccc(C(=O)O)cc1 [Example 29, 4-(3E-{4-Methoxy-2-[2-(2-methoxyethoxy)ethoxy]-5-thiophen-2-yl-phenyl}-acryloyl)-benzoic Acid]",% Inhibition,[13],24%
same,% Inhibition,"[14]; 60 mg/Kg/day, d1–14",82%
same,IC50,[15],< 1000 nM
"COc1cc(OCCN2CCOCC2)c(/C=C/C(=O)c2ccc(C(=O)O)cc2)cc1-c1cccs1.Cl [Example 60, 4-{3E-[4-Methoxy-2-(2-morpholin-4-yl-ethoxy)-5-thiophen-2-yl-phenyl]-acryloyl}-benzoic acid, hydrochloride]",% Inhibition,[13],36%
same,% Inhibition,"[14]; 75 mg/kg/day, dl–14",62* %
same,melting point,,255 °C (dec.)
same,IC50,[15],< 1000 nM
"COc1cc(OCC(CO)CO)c(/C=C/C(=O)c2ccc(S(N)(=O)=O)cc2)cc1-c1cccs1 [Example 86, 4-{3E-[2-(3-Hydroxy-2-hydroxymethyl-propoxy)-4-methoxy-5-thiophen-2-yl-phenyl]-acryloyl}-benzenesulfonamide]",% Inhibition,[13],48%
same,melting point,,123 to 124 °C
same,IC50,[15],< 5000 nM
